These are literature values, as cited in article PMC3226709 (Journal of the American Chemical Society, 2011).

pIC50: −log10 of the molar value.

The data set concerns GSTO1. The following applies: read-out: IC50 for GSTO1 inhibition.

Turning to `CC(=O)Oc1ccc2c(c1)Oc1cc(OC(C)=O)ccc1C21OC(=O)c2cc(CCl)ccc21` [CellTracker Green, 5-chloromethylfluorescein diacetate], the pIC50 is 7.29.
